“Also recorded” adds a separate entry of the source. Counter-ions that a name gives are not always drawn.
Experiments:
[1] = test system: mice; test: Interaction with barbital; format: in vivo, mouse; conditions: gastric
Protocol: Half an hour after the administration of CRL 41 153, groups of 10 mice receive an intraperitoneal injection of barbital (220 mg/kg).

[2] = test system: rats; test: Overall behavior and reactivities in rats; format: in vivo, rat; conditions: for Observed symptoms: i.p.
Protocol: (§1) In the neuropsychopharmacological study which follows, a solution of CRL 41 153 in distilled water (pH 1.5) was administered intraperitoneally in a volume of 20 ml/kg to male mice and 5 ml/kg to male rats.
(§2) Groups of three animals are observed before and then 0.25 hour, 0.50 hour, 1 hour, 2 hours, 3 hours and 24 hours after the administration of CRL 41 153.

[3] = test system: cellular and humoral immunity; test: Test for cells forming lysis areas; conditions: in vivo
[4] = test system: immunity; test: Immunological study (overall); conditions: in vivo; hydrochloride
[5] = pH of solutions in distilled water; format: physicochemical; conditions: administered solution in distilled water, concentration not given
Protocol: The neuropsychopharmacological study was undertaken according to the procedures described above for CRL 41 153, CRL 41 213 being adminstered intraperitoneally, in solution in distilled water, in a volume of 20 ml/kg to male mice and a volume of 5 ml/kg to male rats, and the pH of the injected solution varying with the concentration of CRL 41 213 according to the data given in Table II below.

[6] = test system: humans; test: Clinical study: vasodilator; format: in vivo, human
Excerpt: In the treatment of diseases associated with the blood circulation through the vessels.

[7] = Particular toxicity in grouped mice; conditions: mouse, ip
Protocol: (§3) The number of dead animals is noted after 1 hour, 2 hours, 3 hours, 4 hours and 24 hours.

[8] = test system: mice; test: Particular toxicity in grouped mice; conditions: mice
Protocol: as §3

[9] = test system: man; test: Clinical study: treatment of depressions; format: in vivo, human
[10] = test system: gravid White New Zealand female rabbits; test: Teratogenicity in gravid White New Zealand rabbits; format: in vivo, rabbit; conditions: day 5 to day 18 of gestation; for Affected foetuses, %: normal limit 1.5%
Summary of the method: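 Fetuses harvested by cesarean on gestation day 29 were scored for number and for any malformation (limb blockade, anury, tail or skull defects, exencephaly).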

[11] = test system: CNS; test: Neuropsychopharmacological profile as a whole; format: in vivo, mice and rats; conditions: conclusion of the tests
Protocol: as §1

[12] = test system: mice; test: Overall behavior and reactivities in mice; format: in vivo, mouse; conditions: i.p.
Protocol: as §1, §2

[13] = test system: mice; test: Interaction with apomorphine in mice; format: in vivo, mouse; conditions: gastric, apomorphine 16 mg/kg s.c.
Protocol: Groups of 6 mice receive CRL 41 153 0.5 hour before the subcutaneous injection of 1 or 16 mg/kg of apomorphine.

[14] = test system: mice; test: Spontaneous motility; format: in vivo, mouse; conditions: gastric
Protocol: 0.5 hour after they have received CRL 41 153, the mice (6 per dose, 12 control animals) are placed in an actimeter, where their motility is recorded for 30 minutes.

[15] = test system: rats; test: Investigation of stereotype movements; format: in vivo, rat; conditions: i.p., compared with amphetamine 2 mg/kg, hydrochloride
Protocol: Immediately after the intraperitoneal administration of CRL 41 194 or amphetamine, groups of 6 rats are placed in Plexiglass boxes (20×10×10 cm). The stereotype movements are graded from 0 to 3 every 10 minutes until they wear off.
Groups of 6 rats receive an intraperitoneal injection of CRL 41 213, distilled water or amphetamine immediately before being placed in small cages, where their stereotype behavior is graded every 10 minutes until the effect wears off.

[16] = test system: cellular and humoral immunity; test: Delayed hypersensitivity to the red blood corpuscles of sheep; format: in vivo
[17] = test system: dogs; test: Cardiovascular study in anesthetized dogs; format: in vivo, dog
Summary of the method: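 Nembutal-anaesthetized dogs (~14 kg) given CRL 41 194 (n=2) or CRL 41 221 (n=4) intraduodenally at successive 0.1, 0.5, 1, 2.5, 5 and 10 mg/kg doses. Blood pressure, heart rate, femoral and vertebral flow, rectal temperature measured; skin colour observed, plus bile colour (CRL 41 194).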

[18] = Acute toxicity by intraperitoneal administration; format: in vivo, mouse; conditions: mouse, in vivo, ip; male mice
Protocol: as §1

[19] = test system: male mice; test: Acute toxicity by intraperitoneal administration; format: in vivo, mouse; conditions: i.p.
Protocol: as §1

[20] = anesthetized dogs, intraduodenal
[21] = dogs, after product, isoprenaline 10 μg/kg
[22] = dogs, after product, norepinephrine 2 μg/kg

## CC(C)NC(C)C(=O)c1cc(Cl)c(N)c(Cl)c1 (centres unmarked) [CRL 41 194, 1-(4-amino-3,5-dichlorophenyl)-2-isopropylaminopropanone hydrochloride]
[1]
  Duration of the sleep induced by barbital: At the strongest dose administered gastrically (32 mg/kg), CRL 41 194 reduces the duration of the sleep induced by barbital in mice
[2]; dose not stated
  Stereotype movements (summary): stereotype movements (of moderate intensity)
[2]; 0.125 mg/kg
  Observed symptoms: mydriasis for 2 hours (at a maximum 0.5 hour after administration)
[2]; 0.5 mg/kg
  Observed symptoms: dyspnea for 0.5 hour
[2]; 2 mg/kg, hydrochloride
  Observed symptoms: mydriasis at a maximum 0.5 hour after administration; also recorded: dyspnea for 2 hours
[2]; 8 mg/kg, hydrochloride
  Observed symptoms: piloerection for 1 hour; also recorded: mydriasis for 2 hours (at a maximum 0.5 hour after administration); also recorded: dyspnea for 2 hours
[3]
  Activity in the test for cells forming lysis areas: active on the cellular and humoral immunity
[4]
  Immunological effect (overall): immunostimulant or immunomodulating effects; also recorded: beneficial immunological properties; also recorded: behaves as an immunomodulating agent
[5]
  pH: 4.5
[6]
  Vasodilator in human clinical use: very active as a vasodilator
[7]; grouped mice
  LD50: 27 mg/kg
[7]; in vivo
  selectivity ratio: 3.19
[7]; isolated mice
  LD50: 86 mg/kg
[8]
  Particular toxicity to grouped mice: more toxic to grouped mice than to isolated mice
[9]
  Result in the treatment of depressions: excellent results on man in the treatment of depressions at a dose of 3×5 mg per day
[10]; 5 mg/kg daily
  Affected foetuses, number: 1
  Total foetuses (live): 95
  Affected foetuses, %: 1.10%
[10]; 10 mg/kg daily
  Affected foetuses, number: 0
  Total foetuses (live): 91
  Affected foetuses, %: 0%
[11]
  Antidepressant effects (overall): is an antidepressant
[12]; 0.25 mg/kg
  Observed symptoms: weak excitation 24 hours after administration
[12]; 1 mg/kg
  Observed symptoms: weak excitation 24 hours after administration
[12]; 4 mg/kg
  Observed symptoms: weak excitation and an increase in the reactivity to touch about 24 hours after administration
[12]; 16 mg/kg, hydrochloride
  Observed symptoms: weak excitation 24 hours after administration; also recorded: an increase in the reactivity to touch for 24 hours; also recorded: dyspnea for 3 hours; also recorded: mydriasis for 2 hours (at a maximum 1 hour after administration); also recorded: dilation of the caudal veins for 2 hours
[13]
  Effect on hypothermia induced by apomorphine: as from a dose of 2 mg/kg, administered gastrically, CRL 41 194 opposes the hypothermia
  Effect on righting behavior and stereotypies induced by apomorphine: without modifying the righting behavior and the stereotypies
[14]
  Spontaneous motor activity: At the strongest dose administered gastrically (32 mg/kg), CRL 41 194 slightly reduces the spontaneous motor activity of mice
[15]
  Stereotype movements: At the strongest dose used (16 mg/kg), CRL 41 194 causes the appearance of stereotype movements; also recorded: The intensity of the effect obtained with 16 mg/kg is slightly lower than that obtained with 2 mg/kg of amphetamine
[16]
  Activity on the delayed hypersensitivity reaction: active on the cellular and humoral immunity
[17]
  Vasodilator (conclusion): good vasodilator
[17]; anesthetized dogs
  Effect on hypertension induced by norepinephrine: slightly reduced
  Effects of isoprenaline on the blood pressure: reduced as regards the blood pressure
  Rectal temperature: the rectal temperature and skin temperature rose
  Skin temperature: the rectal temperature and skin temperature rose
[17]; anesthetized dogs, after accumulated dose of 19.1 mg/kg intraduodenal
  Effects of isoprenaline on the heart rate: not modified as regards the heart rate
[17]; [20]
  Blood pressure: A drop in the diastolic blood pressure is observed at 5 mg/kg
  Differential blood pressure: an increase in the differential blood pressure as from the smallest doses
  Femoral flow: At 0.5 mg/kg, the femoral flow increases
  Heart rate: At 0.5 mg/kg, the femoral flow increases at the same time as the heart rate
  Respiration: Both dogs received respiratory stimulation
  Vertebral flow: increases the vertebral flow as from a dose of 0.1 mg/kg
[17]; [21]
  Diastolic blood pressure after isoprenaline: 64 mm Hg
  Diastolic blood pressure before isoprenaline: 126 mm Hg
  Heart rate after isoprenaline: 262 beats/minute
[17]; [22]
  Systolic blood pressure after norepinephrine: 266 mm Hg
  Systolic blood pressure before norepinephrine: 208 mm Hg
[18]
  LD50: 86 mg/kg
[19]
  LD0 (maximum non-lethal dose): greater than 32 mg/kg
